Results from PubChem BioAssay (NCI).
Several values for one entry are separate records, joined by “and”; a condition that tells them apart may be missing. Equal entries are not always repeated.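 A five-concentration, 48-hour dose response in 96-well plates underlies each endpoint, interpolated linearly between surrounding concentrations. GI50 = concentration required for 50% inhibition of growth. At the TGI there is no net growth.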

Tests used:
Assay in all cases: growth of human tumour cells (NCI), 48 h
SNB-75 CNS = test system: SNB-75 CNS
NCI-H226 lung = test system: NCI-H226 lung
HCC-2998 colon = test system: HCC-2998 colon
SF-539 CNS = test system: SF-539 CNS
TK-10 renal = test system: TK-10 renal
SF-268 CNS = test system: SF-268 CNS
RPMI-8226 leukemia = test system: RPMI-8226 leukemia
SW-620 colon = test system: SW-620 colon
MCF7 breast = test system: MCF7 breast
K-562 leukemia = test system: K-562 leukemia

SMILES	TGI (SNB-75 CNS) [µM]	TGI (NCI-H226 lung) [µM]	TGI (HCC-2998 colon) [µM]	TGI (SF-539 CNS) [µM]	TGI (TK-10 renal) [µM]	TGI (SF-268 CNS) [µM]	TGI (RPMI-8226 leukemia) [µM]	TGI (SW-620 colon) [µM]	TGI (MCF7 breast) [µM]	GI50 (SNB-75 CNS)	GI50 (K-562 leukemia)	TGI (K-562 leukemia) [µM]	GI50 (NCI-H226 lung)
COC(=O)c1c(C)cccc1/C=C1/Cc2c(C)cccc2C1=O	> 100	> 100	> 100	> 100	> 100	> 100	8.51	> 100	> 100	–	–	–	–
CSC1CC2C(CC1(C)O)C2(C)C (stereo unspecified)	> 100	> 100	> 100	> 100	> 100	> 100	> 100	> 100	–	> 100 µM and 47.9 µM	49.7 µM and > 100 µM	> 100	38.5 µM and > 100 µM
C/C(=C\c1ccccc1)C(=O)CCN1CCOCC1	> 66.1	> 65	34.4	34.6	–	> 85.6	20.6	30.9	20.9	–	–	> 69.7	–
Nn1c(CCCCCCCCc2nnc(COc3c(O)ccc4ccccc34)n2N)nnc1COc1c(O)ccc2ccccc12	> 100	> 100	> 100	–	> 100	> 100	> 100	> 100	> 100	–	–	> 100	–
O=C(CN1CCCCC1)CC(O)(C(F)(F)F)C(F)(F)F	> 100	> 100	> 100	> 100	> 100	–	> 100	> 100	> 100	–	–	> 100	–
CCSC1=CC(=O)c2nc3ccccc3c3ccnc1c23	26.6	27.1	25	13.2	26.5	> 22	> 31.6	> 21.4	4.79	–	–	–	–
COc1ccc(N2C(=O)c3c4c(c5c([nH]c6ncccc65)c3C2=O)CCC(C(C)(C)C)C4)cc1 (stereo unspecified)	32.8	> 100	> 100	> 100	> 100	> 100	> 100	> 100	> 100	–	–	–	–
COc1cc(/C=C/C(=O)O)ccc1C(=O)O/C=C/c1ccccc1	> 100	> 100	–	> 100	–	> 100	> 100	> 100	> 100	–	–	> 100	–
CC(C)(C)C1=Cc2cc3cc(C(C)(C)C)[nH]c(=O)c3cc2S(=O)(=O)N1	> 100	47.7	–	–	88.3	95.1	98.5	44.8	–	–	–	> 100	–
COc1ccc(CC(CO)NC(=O)OCc2ccccc2)cc1Oc1ccc(CC(CO)NC(=O)OCc2ccccc2)cc1 (stereo unspecified)	11.7	–	93.6	–	41.5	29.4	30.9	> 100	–	–	–	–	–
NC(CSCc1ccccc1)C(=O)O (stereo unspecified)	> 100	> 100	> 100	–	> 100	> 100	> 100	> 100	> 100	–	–	> 100	–
CCOP(=O)(OCC)C1C(CO)OC(n2ccc(=O)[nH]c2=O)C1O (stereo unspecified)	> 100	> 100	> 100	> 100	> 100	> 100	> 100	> 100	–	–	–	> 100	–
O=C1/C(=C/c2ccccc2S)N=C(c2ccccc2)N1c1nc2ccc(Sc3ccccc3)cc2[nH]1	93.5	–	37.6	–	70.3	> 100	65.7	> 100	84.5	–	–	> 100	–
CCN(CC)CCNc1ccc2nnn3c4ccc(OC)cc4c(=O)c1c23	21	20	–	17.2	23.9	20.6	14.9	17.1	–	–	–	20.1	–
OC[C@@H](O)[C@H]1NC[C@@H](O)[C@H]1O	> 100	–	> 100	> 100	> 100	> 100	> 100	> 100	> 100	–	–	–	–
c1ccc2c(c1)[nH]c1nc3cc(-c4ccc5nc6c(nc5c4)[nH]c4ccccc46)ccc3nc12	> 100	> 100	> 100	–	> 100	> 100	> 100	> 100	> 100	–	–	–	–
COc1ccc(N[C@H](CSc2ccc(C)cc2)c2ccc(F)cc2)cc1	> 100	–	> 100	> 100	> 100	> 100	> 100	> 100	> 100	–	–	> 100	–
CN(C)c1ccc(-c2c(C#N)c(S)n(NS(=O)(=O)c3ccccc3)c(=O)c2C#N)cc1	> 100	–	> 100	53.4	41.4	–	91	> 100	> 100	–	–	> 100	–
CCC(C(=O)O)c1ccc(OCc2ccccc2)cc1 (stereo unspecified)	> 100	> 100	> 100	> 100	> 100	> 100	> 100	> 100	–	–	–	> 100	–
O=C1CCSSCCC(=O)NCCN1	–	> 100	–	> 100	> 100	> 100	> 100	> 100	–	–	–	> 100	–
CN(C)C(CN)CC1=C(CC(CN)N(C)C)CCC1 (stereo unspecified)	> 100	> 100	> 100	> 100	–	> 100	> 100	> 100	> 100	–	–	> 100	–
NC(=O)C(=O)N/N=C1/c2ccccc2CC1C1(O)C(=O)Nc2c(Cl)cc(Cl)cc21 (stereo unspecified)	> 100	> 100	> 100	> 100	> 100	> 100	> 100	> 100	–	–	–	> 100	–
CCN(CC)CCOC(NC(C)=O)(c1ccccc1)c1ccccc1	> 100	> 100	> 100	> 100	> 100	> 100	> 100	> 100	> 100	–	–	–	–
Nc1nn2c(C(Br)Br)cc(C(Br)Br)nc2c1[N+](=O)[O-]	2.29	5.5	4.52	1.16	2.28	4.8	1.72	0.77	–	–	–	0.857	–
